Structures are written as SMILES. pIC50, pKi: −log10 of the molar value.

The species named for one series is Homo sapiens. Kind of series: Selectivity index, ratio of IC50 for recombinant human MAO-B to IC50 for recombinant human MAO-A.
Series [1] deals with T1, Amine oxidase [flavin-containing] A (Homo sapiens, UniProt P21397).
T1 sequence (P21397 whole entry): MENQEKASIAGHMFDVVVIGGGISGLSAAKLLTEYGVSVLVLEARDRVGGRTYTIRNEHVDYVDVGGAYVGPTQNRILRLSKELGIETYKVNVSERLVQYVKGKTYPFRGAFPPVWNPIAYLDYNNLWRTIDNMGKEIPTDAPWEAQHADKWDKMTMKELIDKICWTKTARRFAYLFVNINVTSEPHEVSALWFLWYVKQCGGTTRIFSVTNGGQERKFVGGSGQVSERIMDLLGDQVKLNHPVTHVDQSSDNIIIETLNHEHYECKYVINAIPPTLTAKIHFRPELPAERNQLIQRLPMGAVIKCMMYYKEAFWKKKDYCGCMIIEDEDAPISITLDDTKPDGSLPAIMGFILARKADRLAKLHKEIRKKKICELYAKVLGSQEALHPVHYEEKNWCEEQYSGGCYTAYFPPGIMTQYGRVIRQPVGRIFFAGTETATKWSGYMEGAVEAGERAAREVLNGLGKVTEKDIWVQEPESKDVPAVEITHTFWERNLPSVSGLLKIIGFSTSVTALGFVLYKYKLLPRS
Kind of series: Inhibition of recombinant human MAO-A assessed as residual activity at 1.1 uM using kynuramine as substrate after 30 mins by spectrophotometric method relative to control. The settings on record: 0.5 h, read-out: Activity.

In series [2] the target is T1, Amine oxidase [flavin-containing] A. Kind of series: Reversible inhibition of recombinant human MAO-A assessed as residual activity at 1.1 uM using kynuramine as substrate preincubated for 30 mins followed by dialysis for 6 hrs by spectrophotometric method relative to control. The note with it: read-out: Activity.
For series [3] the target is unchanged. Kind of series: Inhibition of recombinant human MAO-A expressed in baculovirus infected insect cells using aminoproplyether of luciferin methyl ester as substrate after 90 mins by chemiluminescence assay.
Series [4] has as its target T2, Amine oxidase [flavin-containing] B (Homo sapiens, UniProt P27338).
T2 sequence (P27338 whole entry): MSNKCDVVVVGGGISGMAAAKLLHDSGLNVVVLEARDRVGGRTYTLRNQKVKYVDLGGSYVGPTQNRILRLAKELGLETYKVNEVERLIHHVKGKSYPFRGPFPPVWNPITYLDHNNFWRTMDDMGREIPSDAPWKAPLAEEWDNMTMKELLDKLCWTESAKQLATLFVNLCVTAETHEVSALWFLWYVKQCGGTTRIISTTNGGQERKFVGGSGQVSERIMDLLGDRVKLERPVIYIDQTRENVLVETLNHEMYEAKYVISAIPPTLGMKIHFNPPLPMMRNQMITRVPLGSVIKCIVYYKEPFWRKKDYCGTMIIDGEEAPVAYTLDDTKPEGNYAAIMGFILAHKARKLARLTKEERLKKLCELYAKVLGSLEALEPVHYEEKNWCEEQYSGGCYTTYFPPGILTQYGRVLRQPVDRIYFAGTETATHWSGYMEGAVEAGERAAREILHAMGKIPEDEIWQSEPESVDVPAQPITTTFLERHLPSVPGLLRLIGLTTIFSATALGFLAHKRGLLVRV
Kind of series: Inhibition of recombinant human MAO-B assessed as residual activity at 20 uM using benzylamine as substrate incubated for 30 mins by spectrophotometric method relative to control. The note with it: 0.5 h, read-out: Activity.

Series [5] deals with T1, Amine oxidase [flavin-containing] A. In words: Inhibition of recombinant human MAO-A assessed as residual activity at 20 uM using kynuramine as substrate incubated for 20 mins by spectrophotometric method relative to control. The note with it: read-out: Activity.
The target in series [6] is T2, Amine oxidase [flavin-containing] B. In words: Inhibition of recombinant human MAO-B using benzylamine as substrate incubated for 30 mins by spectrophotometric method.
Series [7] addresses T1, Amine oxidase [flavin-containing] A. In words: Inhibition of recombinant human MAO-A using kynuramine as substrate incubated for 20 mins by spectrophotometric method.
For series [8] the target is unchanged. Kind of series: Inhibition of recombinant human MAO-A using kynuramine as substrate by spectrophotometric method. The note with it: TDE = time-dependent effect.
Series [9] has the same target. Kind of series: Competitive inhibition of recombinant human MAO-A using kynuramine as substrate by Lineweaver-Burk plot analysis.

As to `COc1ccc(-c2cc(=O)c3c(O)cc(O)cc3o2)cc1`, the Ratio IC50 in the series filed under Homo sapiens came out at 0.89.

Turning to `O=C1/C(=C/c2ccc(O)cc2)Oc2cc(O)ccc21`, in the series listed under Homo sapiens, the Ratio IC50 worked out at 9.4.

`C#CCN(C)CCCOc1ccc(Cl)cc1Cl` [CLORGILINE]: the activity at 1.1 µM in series [1] was 17.3%; in series [2], 18.3%.

What is called pIC50 is the negative decadic logarithm of the IC50, by convention in mol/L. Turning to `COc1cc(-c2[o+]c3cc(O)cc(O)c3cc2O)cc(OC)c1O` [MALVIDIN CHLORIDE], the pIC50 in series [3] was 4.66.

For `COc1cc2c(cc1OC)[C@@H]1[C@H](C)c3ccc(OC)c(OC)c3CN1CC2`, the results for the activity at 20 µM in series [4] and in series [5] were 54.7% and 79.5%, respectively. Also, the pIC50 in series [6] was 4.62; in series [7], < 4.70.

Turning to `COc1cc2c(cc1OC)[C@@H]1Cc3ccc(O)c(OC)c3CN1CC2`, the activity at 20 µM in series [4] amounted to 92.8%; in series [5] it was 85.6%. Also, the pIC50 in series [6] and in series [7] was < 4.70 each time.

Turning to `COc1cc2c(cc1OC)-c1c(OC)c(OC)cc3ccnc(c13)C2=O` [OXOGLAUCINE], the activity at 20 µM in [4] stood at 64.9%; in [5] it was 89.7%. Further, the pIC50 in series [6] and in series [7] was < 4.70 each time.

Take `COc1cc2c(cc1O)[C@H]1Cc3ccc(OC)c(OC)c3CN1CC2`: the results for the activity at 20 µM in series [4] and in [5] were 91.4% and 93.4%, respectively. For the same compound, the negative-log IC50 (pIC50) in series [6] and in [7] was < 4.70 in each case.

As for `CN1Cc2c(ccc3c2OCO3)[C@@]2(C)[C@@H](O)Cc3cc4c(cc3[C@@H]12)OCO4`, the activity at 20 µM was 87.6% in [4] and 87.9% in series [5]. The pIC50 in series [6] and in series [7] was < 4.70 in each case.

Broadly, the pKi is −log10 of the Ki, conventionally taken in molar units. For the compound `COc1ccc2c(c[n+](C)c3c4cc5c(cc4ccc23)OCO5)c1OC` [CHELERYTHRINE], in series [8], the “inhibition (INH)” value is reported as “Tde”. The activity at 20 µM in series [4] was 94.3%; in [5], 28.3%. Besides, the activity at 1.1 µM in series [1] stood at 28.5%; in series [2], 75%. Moreover, the pKi in series [9] is 6.66. Besides, the Ratio IC50 in the series listed under Homo sapiens was > 36.4. Moreover, the figures for the pIC50 in series [6] and in series [7] were < 4.70 and 6.26, respectively.

As for `Cc1cccc(N2CC(CO)OC2=O)c1` (stereo unspecified) [TOLOXATONE], the activity at 1.1 µM in series [1] is 30.7%; in series [2] it was 75.4%.

The values are drawn from ChEMBL document CHEMBL4118277, “Selective inhibition of monoamine oxidase A by chelerythrine, an isoquinoline alkaloid” (Bioorg Med Chem Lett, 2018).
